# Results reported in patent US6432973B1, “Water soluble rapamycin esters” (Wyeth, priority 2000, dated 2002).
# Assays:
# [1] = test system: U87MG human glioblastoma cells; experiment: inhibition of U87MG human glioblastoma cell growth (3H-thymidine incorporation); format: cell-based; settings: U-87 MG, 48 hours incubation
# Description: The antitumor activity of the compounds of this invention were confirmed in a standard pharmacological test procedure which measures the inhibition of U87MG human glioblastoma cell growth (as a function of ^3H-thymidine incorporation), using CCl-779-PEG 5000 ester (Compound III) and CCl-779-(PEG 5000)2 ester (Compound IV) as representative compounds of this invention. The following briefly describes the procedure used and results obtained. U87MG human glioblastoma cells (ATCC #HTB-14; available from the American Type Culture Collection; 10801 University Boulevard; Manassas, Va. 20110;), were grown in the following media.
# Growth Medium: BRL Minimum Essential Medium with Earle Salts (500 mL)
# +5 mL BRL MEM Non-Essential Amino Acids (10 mM)
# +5 mL BRL Na Pyruvate Solution (100 mM)
# +5 mL BRL L-Glutamine 200 mM
# +50 mL BRL Fetal Bovine Serum (Qualified)
# 1. Cells were trypsinized and plated at a concentration of 10^4 cells/well in a final volume of 200 μL growth medium in 96-well flat bottom plates and allowed to adhere for 24 hours at 37° C.
# 2. The media was removed by aspiration with care to not disturb the cell monolayer. 200 μL of fresh growth media was added per well, allowing enough wells for samples to be run in triplicate. Test compounds were added in 10 μL phosphate buffer solution (PBS) and incubated for another 48 hours at 37° C.
# 3. […]
# 4. […] Mats were counted in a Wallac Betaplate counter.
# [2] = water solubility; format: physicochemical
# From the text: Such doses may be administered in any manner useful in directing the active compounds herein to the recipient's bloodstream, including orally, via implants, parenterally (including intravenous, intraperitoneal and subcutaneous injections), rectally, intranasally, vaginally, and transdermally. […] This advantage is particularly important for oral and parenteral administration.
structure (smiles),measurement,setting,value
"CO[C@H]1C[C@@H]2CC[C@@H](C)[C@@](O)(O2)C(=O)C(=O)N2CCCC[C@H]2C(=O)O[C@H]([C@H](C)C[C@@H]2CC[C@@H](OC(=O)C(C)(CO)CO)[C@H](OC)C2)CC(=O)[C@H](C)/C=C(\C)[C@@H](O)[C@@H](OC)C(=O)[C@H](C)C[C@H](C)/C=C/C=C/C=C/1C [CCI-779, rapamycin 42-ester with 3-hydroxy-2-(hydroxymethyl)-2-methylpropionic acid]",IC50,[1],0.6 ng/mL
same,solubility,[2],< 1.1 µg/mL
